Laboratory results from patent publication US8759535B2, “Substituted fused imidazole derivatives, pharmaceutical compositions, and methods of use thereof” (High Point Pharmaceuticals, LLC, priority 2010, dated 2014).

Test system: HMOX1
Assay: HMOX1 Protein Assay (immunostaining of HO-1 in NHLF cells, GE InCell 1000)
Assay type: cell-based
Conditions: Homo sapiens, fold change above DMSO treated cells, 5 μM compound, 16 h
Experimental: Cell Culture. Normal Human Fibroblast (NHLF), were obtained from Lonza. Cultures of cells were maintained in Fibroblast Growth Medium (FGM-2) medium supplemented with 2% fetal bovine serum (FBS), Fibroblast Growth Factor (hFGF-B) 0.5 mL, Insulin 0.5 mL, gentamicin/amphotericin-B 0.5 mL at 37° C. in a humidified atmosphere of 5% CO2. Cells were grown to 80% confluence before treating.
HMOX1 Protein Assay. NHLF cells were grown to 80% confluency and harvested by washing once with HEPES and then trypsinized. Equal numbers (2×10^3 cells per well) of NHLF cells were plated in 384 well optilux tissue culture (BD) plates. Cells were incubated overnight in FGM-2 medium prior to exposure to compound. Cells were treated with either vehicle (DMSO) or compound (dissolved in vehicle) for 16 h. Cells were washed 2× with 1×PBS and fixed with 4% Paraformaldyhyde for 15 min. The fixed cells were then permeabalized with 0.1% Triton X-100 and blocked with 5% BSA in 1×PBS 0.05% Tween-20 for 15 min. HO-1 antibody (abcam) was used for immunostaining at 1:300 dilution in 1% BSA in 1×PBS for 1 hour. Cells were washed 2× with 1×PBS and secondary antibody goat anti-mouse Alexa 488 1:400 dilution (Invitrogen); Hoechst 1:2000 (Invitrogen) in 1% BSA in 1×PBS for 1 hour. Plate was washed 5× with 1×PBS and read at Hoechst Ex.360 […]; Alexa 488 Ex.480 Em. 535 using GE InCell 1000. Results analyzed using GE InCell Analyzer software. Heme oxygenase data represents the fold change above DMSO treated cells.
In general, the fold induction data are reported for 5 μM concentration (i.e., μ-moles of compound to total volume, where the solvent is about 99.2% media and 0.8% DMSO). In some instances, the reported data are for 3 μM concentration, which are indicated by an asterisk (*).

Row | SMILES | fold induction at 5 µM
1 | CN(C)C(=O)CNC(=O)c1cc2nc(Nc3nc4ccc(OC(F)(F)F)cc4s3)n(C)c2cc1F [Example 58, 6-Fluoro-1-methyl-2-(6-trifluoromethoxy-benzothiazol-2-ylamino)-1H-benzoimidazole-5-carboxylic acid dimethylcarbamoylmethyl-amide] | 32.8
2 | Cn1c(Nc2nc3ccc(OC(F)(F)F)cc3s2)nc2cc(C(=O)NCCN3CCOCC3)c(F)cc21 [Example 59, 6-Fluoro-1-methyl-2-(6-trifluoromethoxy-benzothiazol-2-ylamino)-1H-benzoimidazole-5-carboxylic acid (2-morpholin-4-yl-ethyl)-amide] | 49.8
3 | CC(O)CNC(=O)c1cc2nc(Nc3nc4ccc(OC(F)(F)F)cc4s3)n(C)c2cc1F (centres unmarked) [Example 60, 6-Fluoro-1-methyl-2-(6-trifluoromethoxy-benzothiazol-2-ylamino)-1H-benzoimidazole-5-carboxylic acid (2-hydroxy-propyl)-amide] | 39.8
4 | COC(=O)c1cc2nc(Nc3nc4ccc(OC(F)(F)F)cc4s3)n(C)c2cc1OC [Example 61, 6-Methoxy-1-methyl-2-(6-trifluoromethoxy-benzothiazol-2-ylamino)-1H-benzoimidazole-5-carboxylic acid methyl ester] | 12.1
5 | COc1cc2c(cc1C(=O)O)nc(Nc1nc3ccc(OC(F)(F)F)cc3s1)n2C [Example 62, 6-Methoxy-1-methyl-2-(6-trifluoromethoxy-benzothiazol-2-ylamino)-1H-benzoimidazole-5-carboxylic acid] | 20.3
6 | COc1cc2c(cc1C(=O)NCC(=O)N(C)C)nc(Nc1nc3ccc(OC(F)(F)F)cc3s1)n2C [Example 63, 6-Methoxy-1-methyl-2-(6-trifluoromethoxy-benzothiazol-2-ylamino)-1H-benzoimidazole-5-carboxylic acid dimethylcarbamoylmethyl-amide] | 9.8
7 | CCNC(=O)c1cc2nc(Nc3nc4ccc(OC(F)(F)F)cc4s3)n(C)c2cc1OC [Example 64, 6-Methoxy-1-methyl-2-(6-trifluoromethoxy-benzothiazol-2-ylamino)-1H-benzoimidazole-5-carboxylic acid ethylamide] | 18.9
8 | CCOCCNC(=O)c1cc2nc(Nc3nc4ccc(OC(F)(F)F)cc4s3)n(C)c2cc1OC [Example 65, 6-Methoxy-1-methyl-2-(6-trifluoromethoxy-benzothiazol-2-ylamino)-1H-benzoimidazole-5-carboxylic acid (2-ethoxy-ethyl)-amide] | 10.2
9 | COc1cc2c(cc1C(=O)NCCN1CCOCC1)nc(Nc1nc3ccc(OC(F)(F)F)cc3s1)n2C [Example 66, 6-Methoxy-1-methyl-2-(6-trifluoromethoxy-benzothiazol-2-ylamino)-1H-benzoimidazole-5-carboxylic acid (2-morpholin-4-yl-ethyl)-amide] | 20.8
10 | COCCNC(=O)c1cc2nc(Nc3nc4ccc(OC(F)(F)F)cc4s3)n(C)c2cc1OC [Example 67, 6-Methoxy-1-methyl-2-(6-trifluoromethoxy-benzothiazol-2-ylamino)-1H-benzoimidazole-5-carboxylic acid (2-methoxy-ethyl)-amide] | 18.7
11 | COc1cc2c(cc1C(=O)NCC(C)O)nc(Nc1nc3ccc(OC(F)(F)F)cc3s1)n2C (centres unmarked) [Example 68, 6-Methoxy-1-methyl-2-(6-trifluoromethoxy-benzothiazol-2-ylamino)-1H-benzoimidazole-5-carboxylic acid (2-hydroxy-propyl)-amide] | 21.1
12 | CCN(CC)c1cc2c(cc1C(=O)OC)nc(Nc1nc3ccc(OC(F)(F)F)cc3s1)n2C [Example 69, 6-Diethylamino-1-methyl-2-(6-trifluoromethoxy-benzothiazol-2-ylamino)-1H-benzoimidazole-5-carboxylic acid methyl ester] | 4.7
13 | CCN(CC)c1cc2c(cc1C(=O)O)nc(Nc1nc3ccc(OC(F)(F)F)cc3s1)n2C [Example 70, 6-Diethylamino-1-methyl-2-(6-trifluoromethoxy-benzothiazol-2-ylamino)-1H-benzoimidazole-5-carboxylic acid] | 21.4
14 | CCOC(=O)c1cnc2c(c1)nc(Nc1nc3ccc(OC(F)(F)F)cc3s1)n2C [Example 71, 3-Methyl-2-(6-trifluoromethoxy-benzothiazol-2-ylamino)-3H-imidazo[4,5-b]pyridine-6-carboxylic acid ethyl ester] | 4.2
15 | Cn1c(Nc2nc3ccc(OC(F)(F)F)cc3s2)nc2cc(C(=O)O)cnc21 [Example 72, 3-Methyl-2-(6-trifluoromethoxy-benzothiazol-2-ylamino)-3H-imidazo[4,5-b]pyridine-6-carboxylic acid] | 11.9
16 | COCCNC(=O)c1cnc2c(c1)nc(Nc1nc3ccc(OC(F)(F)F)cc3s1)n2C [Example 73, 3-Methyl-2-(6-trifluoromethoxy-benzothiazol-2-ylamino)-3H-imidazo[4,5-b]pyridine-6-carboxylic acid (2-methoxy-ethyl)-amide] | 20.6
17 | CN(C)C(=O)CNC(=O)c1cnc2c(c1)nc(Nc1nc3ccc(OC(F)(F)F)cc3s1)n2C [Example 74, 3-Methyl-2-(6-trifluoromethoxy-benzothiazol-2-ylamino)-3H-imidazo[4,5-b]pyridine-6-carboxylic acid dimethylcarbamoylmethyl-amide] | 11.1
18 | CCOCCNC(=O)c1cnc2c(c1)nc(Nc1nc3ccc(OC(F)(F)F)cc3s1)n2C [Example 75, 3-Methyl-2-(6-trifluoromethoxy-benzothiazol-2-ylamino)-3H-imidazo[-4,5-b]pyridine-6-carboxylic acid (2-ethoxy-ethyl)-amide] | 29
19 | CCNC(=O)c1cnc2c(c1)nc(Nc1nc3ccc(OC(F)(F)F)cc3s1)n2C [Example 76, 3-Methyl-2-(6-trifluoromethoxy-benzothiazol-2-ylamino)-3H-imidazo[4,5-b]pyridine-6-carboxylic acid ethylamide] | 22.5
20 | Cn1c(Nc2nc3ccc(OC(F)(F)F)cc3s2)nc2cc(C(=O)NCCN3CCOCC3)cnc21 [Example 77, 3-Methyl-2-(6-trifluoromethoxy-benzothiazol-2-ylamino)-3H-imidazo[4,5-b]pyridine-6-carboxylic acid (2-morpholin-4-yl-ethyl)-amide] | 31.4
21 | CC(O)CNC(=O)c1cnc2c(c1)nc(Nc1nc3ccc(OC(F)(F)F)cc3s1)n2C (centres unmarked) [Example 78, 3-Methyl-2-(6-trifluoromethoxy-benzothiazol-2-ylamino)-3H-imidazo[4,5-b]pyridine-6-carboxylic acid (2-hydroxy-propyl)-amide] | 28.6
22 | COC(=O)CNC(=O)c1ccc2c(c1)nc(Nc1nc3ccc(OC(F)(F)F)cc3s1)n2C [Example 79, {[1-Methyl-2-(6-trifluoromethoxy-benzothiazol-2-ylamino)-1H-benzoimidazole-5-carbonyl]-amino}-acetic acid methyl ester] | 17.6
23 | CN(C)C(=O)CNC(=O)c1ccc2c(c1)nc(Nc1nc3ccc(OC(F)(F)F)cc3s1)n2C [Example 80, 1-Methyl-2-(6-trifluoromethoxy-benzothiazol-2-ylamino)-1H-benzoimidazole-5-carboxylic acid dimethylcarbamoylmethyl-amide] | 23.2
